Key:
BXPC-3 = assay: Cytotoxicity against human BXPC-3 cells assessed as reduction in cell viability incubated for 72 hrs by MTT assay; assay type: functional, cell-based; conditions: BXPC-3, 72 h
ASPC1 [1] = assay: Cytotoxicity against human ASPC1 cells assessed as reduction in cell viability incubated for 24 hrs by MTT assay; assay type: functional, cell-based; conditions: ASPC1, 24 h
PANC-1 = assay: Cytotoxicity against human PANC-1 cells assessed as cell growth inhibition incubated for 48 hrs by WST-1 assay; assay type: functional, cell-based; conditions: PANC-1, 48 h
SW1990 [2] = assay: Cytotoxicity against human SW1990 cells measured after 8 days; assay type: functional, cell-based; conditions: SW1990, 192 h
MRC5 = assay: Cytotoxicity against human MRC5 cells assessed as reduction in cell growth incubated for 48 hrs by CCK8 assay; assay type: functional, cell-based; conditions: MRC5, 48 h
SNB-19 [3] = assay: Anticancer activity against human SNB-19 cells assessed as reduction in cell proliferation incubated for 72 hrs by WST-1 assay; assay type: functional, cell-based; conditions: SNB-19, 72 h
Caco-2 = assay: Cytotoxicity against human Caco-2 cells assessed as reduction in cell proliferation incubated for 72 hrs by WST-1 assay; assay type: functional, cell-based; conditions: Caco-2, 72 h
A549 [4] = assay: Antiproliferative activity against human A549 cells assessed as reduction in cell viability incubated for 72 hrs by WST-1 assay; assay type: functional, cell-based; conditions: A549, 72 h
MDA-MB-231 [5] = assay: Antiproliferative activity against human MDA-MB-231 cells assessed as reduction in cell viability incubated for 72 hrs by WST-1 assay; assay type: functional, cell-based; conditions: MDA-MB-231, 72 h
NHDF = assay: Cytotoxicity against human NHDF cells assessed as reduction in cell viability incubated for 72 hrs by WST-1 assay; assay type: functional, cell-based
SW1990 [6] = assay: Anticancer activity against human SW1990 cells assessed as reduction in cell viability incubated for 72 hrs by MTT assay; assay type: functional, cell-based; conditions: SW1990, 72 h
ASPC1 [7] = assay: Anticancer activity against human ASPC1 cells assessed as reduction in cell growth incubated for 72 hrs by MTT assay; assay type: functional, cell-based; conditions: ASPC1, 72 h
[8] = Antioxidant activity assessed as DPPH radical scavenging activity incubated for 30 mins; assay type: functional
SNB-19 [9] = assay: Antiproliferative activity against human SNB-19 cells assessed as reduction in cell proliferation incubated for 72 hrs by WST-1 assay; assay type: functional, cell-based; conditions: SNB-19, 72 h
TC-32 [10] = assay: Antiproliferative activity against human TC-32 cells assessed as reduction in cell proliferation incubated for 72 hrs by WST-1 assay; assay type: functional, cell-based; conditions: TC-32, 72 h
MDA-MB-231 [11] = assay: Antiproliferative activity against human MDA-MB-231 cells assessed as reduction in cell proliferation incubated for 72 hrs by WST-1 assay; assay type: functional, cell-based; conditions: MDA-MB-231, 72 h
MKN-28 = assay: Antiproliferative activity against human MKN-28 cells assessed as reduction in cell viability by MTT assay; assay type: functional, cell-based
MGC-803 = assay: Antiproliferative activity against human MGC-803 cells assessed as reduction in cell growth by MTT assay; assay type: functional, cell-based
MKN-45 = assay: Antiproliferative activity against human MKN-45 cells assessed as cell growth inhibition by MTT assay; assay type: functional, cell-based
HSC-2 = assay: Cytotoxicity against human HSC-2 cells assessed as reduction in cell viability measured after 48 hrs by MTT assay; assay type: functional
HSC-3 = assay: Cytotoxicity against human HSC-3 cells assessed as reduction in cell viability incubated for 48 hrs by MTT assay; assay type: functional
HSC-4 = assay: Cytotoxicity against human HSC-4 cells assessed as reduction in cell viability incubated for 48 hrs by MTT assay; assay type: functional
TC-32 [12] = assay: Cytotoxicity against human TC-32 cells assessed as reduction in cell viability incubated for 48 hrs by CellTiter-Blue reagent based […] assay; assay type: functional; conditions: TC-32, 48 h
SNB-19 [13] = assay: Antiproliferative activity against human SNB-19 cells assessed as cell growth inhibition incubated for 72 hrs by WST-1 assay; assay type: functional, cell-based; conditions: SNB-19, 72 h
T47D = assay: Antiproliferative activity against human T47D cells assessed as cell growth inhibition after 48 hrs by SRB assay; assay type: functional, cell-based
HepG2 [14] = assay: Cytotoxicity against human HepG2 cells assessed as reduction in cell viability incubated for 48 hrs by MTT assay; assay type: functional, cell-based; conditions: HepG2, 48 h
MCF7 = assay: Cytotoxicity against human MCF7 cells assessed as cell growth inhibition measured after 48 hrs by MTT assay; assay type: functional, cell-based; conditions: MCF7, 48 h
CT26 [15] = assay: Antitumor activity against mouse CT26 cells assessed as reduction in cell viability incubated for 4 hrs by MTT assay; assay type: functional, cell-based; conditions: CT26, 4 h
CT26 [16] = assay: Antitumor activity against mouse CT26 cells assessed as tumor growth inhibition incubated for 4 hrs by MTT assay relative to control; assay type: functional; parameters: scale not given: the % may be the effect or the level left
LoVo [17] = assay: Antiproliferative activity against human LoVo cells assessed as reduction in cell viability incubated for 48 hrs by MTT assay; assay type: functional, cell-based
LoVo [18] = assay: Cytotoxicity against human LoVo cells assessed as reduction in cell viability incubated for 72 hrs by MTT assay; assay type: functional
[19] = Antiproliferative activity against human Lovo/DX cells assessed as reduction in cell viability; assay type: functional, cell-based
[20] = Cytotoxicity against human Lovo/DX cells assessed as reduction in cell viability incubated for 72 hrs by MTT assay; assay type: functional
SW1990 [21] = assay: Antiproliferative activity against human SW1990 cells assessed as reduction in cell viability; assay type: functional, cell-based
ASPC1 [22] = assay: Antiproliferative activity against human AsPC1 cells assessed as inhibition of cell proliferation incubated for 6 days by CCK8 assay; assay type: functional, cell-based; conditions: ASPC1, 144 h
A549 [23] = assay: Anticancer activity against human A549 cells assessed as inhibition of cell proliferation measured after 48 hrs by MTT assay; assay type: functional, cell-based; conditions: A549, 48 h
HepG2 [24] = assay: Anticancer activity against human HepG2 cells assessed as inhibition of cell proliferation measured after 48 hrs by MTT assay; assay type: functional, cell-based; conditions: HepG2, 48 h
SNB-19 [25] = assay: Anticancer activity against human SNB-19 cells assessed as reduction in cell growth incubated for 48 hrs by SRB assay; assay type: functional, cell-based; conditions: SNB-19, 48 h
TC-32 [26] = assay: Anticancer activity against human TC-32 cells assessed as reduction in cell growth incubated for 48 hrs by SRB assay; assay type: functional, cell-based; conditions: TC-32, 48 h
MDA-MB-231 [27] = assay: Anticancer activity against human MDA-MB-231 cells assessed as reduction in cell viability measured after 72 hrs by MTT assay; assay type: functional, cell-based; conditions: MDA-MB-231, 72 h

Compound: CC1=C(C(=O)Nc2ccc(Cl)c(Cl)c2)C(c2ccc3c(c2)Sc2ccccc2N3)C(C(=O)Nc2ccc(Cl)c(Cl)c2)=C(C)N1
- IC50 (BXPC-3): 6.31 µM
- IC50 (ASPC1 [1]): 6.31 µM
- IC50 (PANC-1): 6.31 µM
- IC50 (SW1990 [2]): 6.31 µM
- IC50 (MRC5): 70.5 µM

Compound: Clc1ccc(Cn2cc(CN3c4cccnc4Sc4cccnc43)nn2)cc1
- IC50 (SNB-19 [3]): 4.66 µM
- IC50 (Caco-2): 0.25 µM
- IC50 (A549 [4]): 0.25 µM
- IC50 (MDA-MB-231 [5]): 0.51 µM
- IC50 (NHDF): > 100 µM

Compound: CCCCCN1c2ccccc2Sc2cc(/C=C(\C#N)C(N)=O)ccc21
- IC50 (SW1990 [6]): 13.3 µM
- IC50 (ASPC1 [7]): 25.3 µM
- IC50 [8]: 37.3 µM

Compound: C#CCN1c2ncccc2Sc2cccnc21
- IC50 (SNB-19 [9]): 3.85 µM
- IC50 (TC-32 [10]): 3.37 µM
- IC50 (MDA-MB-231 [11]): 14.1 µM

Compound: COc1ccc(-n2cc(CN3c4ccccc4Sc4ccccc43)nn2)c([N+](=O)[O-])c1
- IC50 (MKN-28): 2.7 µM
- IC50 (MGC-803): 1.2 µM
- IC50 (MKN-45): 3.5 µM

Compound: COc1cc(OC)c(OC)cc1/C=C/C(=O)c1ccc2c(c1)Nc1ccccc1S2
- CC50 (HSC-2): 4.9 µM
- CC50 (HSC-3): 311 µM
- CC50 (HSC-4): 8 µM

Compound: CN1CCN(CC#CCN2c3ccncc3Sc3ccncc32)CC1
- IC50 (TC-32 [12]): 35 µM
- IC50 (SNB-19 [13]): 21.2 µM
- IC50 (T47D): 9.6 µM

Compound: CCCCCCCCCCCCN1c2ccccc2Sc2ccc(C(=O)/C=C/c3ccc(Cl)cc3)cc21
- IC50 (HepG2 [14]): 7.14 µM
- IC50 (MCF7): 13.8 µM

Compound: CCCCCCCCCCCCN1c2ccccc2Sc2ccc(C(=O)/C=C/c3cc(OC)c(OC)c(OC)c3)cc21
- IC50 (HepG2 [14]): 7.6 µM
- IC50 (MCF7): 12 µM

Compound: COCCOCCOCCOCCOCCOCCOCCOCCOCCOCCOCCOC(=O)CN1c2ccccc2Sc2ccccc21
- IC50 (CT26 [15]): 286 µM
- Activity (CT26 [16]): 92%

Compound: OCCOCCN1CCN(CC(O)CN2c3ccccc3Sc3ccc(C(F)(F)F)cc32)CC1 (stereo not given)
- IC50 (LoVo [17]): 50 µM
- IC20 (LoVo [18]): 6 µM
- IC50 [19]: 20 µM
- IC20 [20]: 4 µM

Compound: CCN1c2ccccc2Sc2cc(C3NC(=O)NC(C)=C3C(=O)Nc3ccccc3)ccc21 (stereo not given)
- IC50 (MRC5): 83.7 µM
- IC50 (SW1990 [21]): 22.8 µM
- IC50 (ASPC1 [22]): 15.7 µM

Compound: COc1ccc(N/N=C2/SC(N/N=C(\C)c3ccc4c(c3)Nc3ccccc3S4)=NC2=O)cc1
- IC50 (A549 [23]): 5.37 µM
- IC50 (HepG2 [24]): 5.37 µM

Compound: CCN(C)CC#CCN1c2ccncc2Sc2ncccc21
- IC50 (SNB-19 [25]): 0.11 µM
- IC50 (TC-32 [26]): 1.53 µM
- IC50 (MDA-MB-231 [27]): 2.81 µM

Compound: CC(=O)c1ccc(N2CCN(CC(O)CN3c4ccccc4Sc4ccc(C(F)(F)F)cc43)CC2)cc1 (stereo not given)
- IC50 (LoVo [17]): 100 µM
- IC20 (LoVo [18]): 3 µM
- IC50 [19]: 100 µM
- IC20 [20]: 4 µM

Compound: C(#CCN1c2ccncc2Sc2ncccc21)CN1CCN(c2ccccc2)CC1
- IC50 (SNB-19 [25]): 0.45 µM
- IC50 (TC-32 [26]): 4.57 µM
- IC50 (MDA-MB-231 [27]): 0.74 µM
